Measured values from the SangsterLogP compilation.

experiment: not given

SMILES	logP
Nc1cccc(F)c1	1.3
CC(=O)Nc1cccc(OCC(=O)O)c1	0.48
O=C(O)COc1cccc(S(F)(F)(F)(F)F)c1	2.78
O=C(O)COc1ccc(O)cc1	0.65
N#Cc1cccc(O)c1	1.7
CC(=O)c1ccccc1OCC(=O)O	1.25
O=C(O)COc1ccc2c(c1)CCCC2	2.67
O=C(O)c1cccc(C(=O)O)c1	1.66
O=C(O)Cc1cccc(Cl)c1	2.09
O=C(O)COc1ccc(C2CCCCC2)cc1	3.79
CCc1cccc(O)c1	2.4
O=C(O)COc1cccc(F)c1	1.48
CC(=O)c1cccc([N+](=O)[O-])c1	1.42
O=C(O)COc1cccc(I)c1	2.44
O=C(O)COc1cccc(O)c1	0.76
O=C(O)c1ccc(Br)cc1	2.86
COc1ccc(CO)cc1	1.1
N#Cc1cccc(C(=O)O)c1	1.48
CC(C)(C)c1cccc(OCC(=O)O)c1	2.96
Oc1ccccc1F	1.71
O=C(O)COc1cccc(Cl)c1	2.03
CC(C)c1cccc(OCC(=O)O)c1	2.59
O=C(O)COc1ccc2c(c1)CCC2	2.33
CCCc1cccc(OCC(=O)O)c1	2.71
O=C(O)COc1ccccc1I	2.19
CC(=O)Oc1ccccc1	1.49
Oc1ccccc1Br	2.35

Now from value to compound:

logP	SMILES
1.37	O=C(O)COc1cccc([N+](=O)[O-])c1
3.18	CCCCc1cccc(OCC(=O)O)c1
2.69	CC(C)c1ccc(OCC(=O)O)cc1
3.18	O=C(O)COc1cccc(-c2ccccc2)c1
3.41	O=C(O)COc1ccc(C2CCCC2)cc1
3.12	CCC(C)c1ccc(OCC(=O)O)cc1 (stereo not given)
2.95	O=C(O)c1cccc(C(F)(F)F)c1
2.86	O=C(O)COc1cccc(SC(F)(F)F)c1
1.56	CN(C)c1cccc(O)c1
-0.05	Nc1cccc(CO)c1
1.45	O=C(O)Cc1cccc([N+](=O)[O-])c1
2.31	O=C(O)Cc1ccc(Br)cc1
1.23	COc1ccc(OCC(=O)O)cc1
1.6	Cc1cccc(CO)c1
1.83	COC(=O)c1cccc(C(=O)O)c1
1.38	COc1cccc(OCC(=O)O)c1
1.39	CC(=O)c1cccc(O)c1

logP	SMILES
0.06	CS(=O)(=O)c1cccc(CC(=O)O)c1
2.99	O=C(O)COc1ccc(N=Nc2ccccc2)cc1
1.48	O=C(O)COc1ccc([N+](=O)[O-])cc1
0.26	NC(=O)Nc1cccc(OCC(=O)O)c1
2.93	Oc1cccc(I)c1
1.99	O=C(O)COc1cccc(NC(=O)c2ccccc2)c1
2.19	O=C(O)COc1cccc(S(=O)(=O)C(F)(F)F)c1
2.48	O=C(O)COc1cccc(OC(F)(F)F)c1
2.64	O=[N+]([O-])c1cccc(Br)c1
0.85	O=C(O)Cc1cccc(O)c1
1.94	OCc1cccc(Cl)c1
2.37	O=C(O)Cc1cccc(Br)c1
1.21	O=[N+]([O-])c1cccc(CO)c1
1.11	O=C(O)COc1cccc(C(=O)O)c1
0.01	CS(=O)(=O)c1cccc(OCC(=O)O)c1
1.9	CSc1cccc(OCC(=O)O)c1

experiment: method code SF-C, from DOI: 10.1021/ja01077a028

SMILES	logP
COc1cccc(CC(=O)O)c1	1.5
O=C(O)Cc1ccccc1F	1.5
O=C(O)COc1ccccc1Cl	2.02
O=C(O)Cc1cccc(F)c1	1.65
N#Cc1cccc(CC(=O)O)c1	1.18

More lines, now with the values ahead:

logP	SMILES
1.95	Cc1cccc(CC(=O)O)c1
1.14	O=C(O)Cc1cccc(C(=O)O)c1
1.22	O=C(O)COc1ccccc1[N+](=O)[O-]
2.1	O=C(O)COc1ccccc1Br
2.62	O=C(O)Cc1cccc(C(F)(F)F)c1
